# Laboratory results taken from patent US12612394B2, “Herbicidal malonamides” (BASF SE, priority 2020, dated 2026).
# Legend:
# [1] = tested on: ECHCG; assay: greenhouse experiment, pre-emergence treatment; type: in vivo, Echinocloa crus-galli; details: application rate 1,000 kg/ha, pre-emergence method
# Description: (§1) The culture containers used were plastic flowerpots containing loamy sand with approximately 3.0% of humus as the substrate. The seeds of the test plants were sown separately for each species.
# (§2) For the pre-emergence treatment, the active ingredients, which had been suspended or emulsified in water, were applied directly after sowing by means of finely distributing nozzles. The containers were irrigated gently to promote germination and growth and subsequently covered with transparent plastic hoods until the test plants had rooted. This cover caused uniform germination of the test plants, unless this had been impaired by the active ingredients. For the post-emergence treatment, the test plants were first grown to a height of 3 to 15 cm, depending on the plant habit, and only then treated with the active ingredients which had been suspended or emulsified in water. For this purpose, the test plants were either sown directly and grown in the same containers, or they were first grown separately as seedlings and transplanted into the test containers a few days prior to treatment.
# (§3) Depending on the species, the test plants were kept at 10-25° C. or 20-35° C., respectively. The test period extended over 2 to 4 weeks. During this time, the test plants were tended, and their response to the individual treatments was evaluated.
# (§4) Evaluation was carried out using a scale from 0 to 100. […]
# [2] = tested on: AMARE; assay: greenhouse experiment, pre-emergence treatment; type: in vivo, Amaranthus retroflexus; details: application rate 1,000 kg/ha, pre-emergence method
# Description: as §1, §2, §3, §4
# [3] = tested on: ABUTH; assay: greenhouse experiment, pre-emergence treatment; type: in vivo, Abutilon theophrasti; details: application rate 0.125 kg/ha, pre-emergence method
# Description: as §1, §2, §3, §4
# [4] = tested on: APESV; assay: greenhouse experiment, post-emergence treatment; type: in vivo, Apera spica-venti; details: application rate 0.500 kg/ha, post-emergence method
# Description: as §1, §2, §3, §4
# [5] = tested on: ALOMY; assay: greenhouse experiment, pre-emergence treatment; type: in vivo, Alopercurus myosuroides; details: application rate 0.125 kg/ha, pre-emergence method
# Description: as §1, §2, §3, §4
# [6] = tested on: SETFA; assay: greenhouse experiment, pre-emergence treatment; type: in vivo, Setaria faberi; details: pre-emergence method
# Description: as §1, §2, §3, §4
# [7] = tested on: AMARE; assay: greenhouse experiment, post-emergence treatment; type: in vivo, Amaranthus retroflexus; details: application rate 0.125 kg/ha, post-emergence method
# Description: as §1, §2, §3, §4
# [8] = tested on: SETVI; assay: greenhouse experiment, post-emergence treatment; type: in vivo, Setaria viridis; details: application rate 0.250 kg/ha, post-emergence method
# Description: as §1, §2, §3, §4
smiles,measurement,setting,value
"COC(=O)[C@H]1C[C@@H](NC(=O)C(OC)C(=O)Nc2cc(Cl)cc(Cl)c2)CO1 (relative stereo) [I.40, methyl cis-4-[[3-(3,5-dichloroanilino)-2-methoxy-3-oxo-propanoyl]amino]tetrahydrofuran-2-carboxylate]",herbicidal activity against ECHCG,[1],very good (a very good herbicidal activity is given at values of 90 to 100)
CNC(=O)[C@@H]1C[C@H](NC(=O)C(OC)C(=O)Nc2cc(F)cc(F)c2)CO1 (relative stereo) [I.100],herbicidal activity against AMARE,[2],very good (a very good herbicidal activity is given at values of 90 to 100)
COC(C(=O)Nc1cc(Cl)cc(Cl)c1)C(=O)N[C@H]1C=C[C@@H](C(=O)OC2CC2)C1 (relative stereo) [I.185],herbicidal activity against ABUTH,[3],very good (a very good herbicidal activity is given at values of 90 to 100)
"COC(C(=O)Nc1cc(Cl)cc(Cl)c1)C(=O)NC1CO[C@@H](C(=O)O)C1 (stereo in doubt) [I.60, cis-4-[[3-(3,5-dichloroanilino)-2-methoxy-3-oxo-propanoyl]amino]tetrahydrofuran-2-carboxylate]",herbicidal activity against ECHCG,[1],good (A good herbicidal activity is given at values of 70 to 90)
COC(=O)CC(NC(=O)C(OC)C(=O)Nc1cc(Cl)cc(Cl)c1)C(F)(F)F (stereo not shown) [I.42],herbicidal activity against APESV,[4],good (A good herbicidal activity is given at values of 70 to 90)
COC(C(=O)Nc1cc(Cl)cc(Cl)c1)C(=O)N[C@H]1C=C[C@@H](C(=O)OC(C)C)C1 (stereo partly shown) [I.159],herbicidal activity against ALOMY,[5],very good (a very good herbicidal activity is given at values of 90 to 100)
same,herbicidal activity against SETFA,[6]; application rate 0.125 kg/ha,very good (a very good herbicidal activity is given at values of 90 to 100)
COC(=O)C1C=CC(NC(=O)C(OC(F)F)C(=O)Nc2cc(Cl)cc(Cl)c2)C1 (stereo not shown) [I.173],herbicidal activity against SETFA,[6]; application rate 0.250 kg/ha,good (A good herbicidal activity is given at values of 70 to 90)
COC(=O)[C@@H]1C=C[C@H](NC(=O)C(OC)C(=O)Nc2cccc(OC(F)(F)C(F)F)c2)C1 (stereo partly shown) [I.192],herbicidal activity against AMARE,[7],good (A good herbicidal activity is given at values of 70 to 90)
COC(=O)[C@@H]1C=C[C@H](NC(=O)C(OC)C(=O)Nc2cc(OC)c(C)c(OC)c2)C1 (stereo partly shown) [I.197],herbicidal activity against SETVI,[8],good (A good herbicidal activity is given at values of 70 to 90)
